Assay results reported in patent publication US20190099414A1, “THERAPEUTIC COMPOSITIONS AND METHODS” (UNIVERSITY OF IOWA RESEARCH FOUNDATION, priority 2015, published 2019).

Tests used:
[1] = tested on: rabbit joint capsule fibroblasts; assay: Collagen gel compaction assay; type: cell-based; details: collagen gel seeded with rabbit joint capsule fibroblasts; final blebbistatin concentration 50 μg/mL, treated 24 hours, imaged up to 48 hours
Procedure: The effect of blebbistatin on rabbit joint capsule fibroblasts (RJCF) was analyzed using a collagen gel compaction assay. RJCFs between passage 4 and 9 were trypsinized using 0.1% trypsin/EDTA for 5 minutes at 37° C. and then the added trypsin was neutralized using DMEM containing 10% FBS. The cell suspension was centrifuged at 230 g for 5 minutes and resuspended in a desired volume of 10% FBS containing DMEM. The collagen gels loaded with RJCFs were prepared by mixing 10×PBS containing phenol red, 1N NaOH, rat tail collagen-I, and the cell suspension to give a final yield of 1×10^6 cells/mL and 2 mg/mL collagen. 500 μL of the collagen gel mixture was added to each well in a 24 well plate and allowed to gelate for 30 minutes in an incubator. After 30 minutes 500 μL of DMEM containing 10% FBS and 50 μg/mL ascorbic acid was added to each well and incubated for 24 hours. After 24 hours, 2.5 mg of blank and blebbistatin loaded nanoparticles dispersed in 50 μL of DMEM or 50 μL of pure drug dissolved in DMSO (1 mg/mL) or 50 μL DMSO or 50 μL PBS were added to each gel so that the final blebbistatin concentration was 50 μg/mL or a corresponding solvent volume for controls. […] Images were acquired at 0, 0.15, 0.5, 1, 2, 3, 4, 5, 6, 7, 24 and 48 hours, and the amount of compaction was measured with ImageJ.

Rho/ROCK pathway = assay: Real time PCR analysis of Rho/ROCK pathway gene expression; type: cell-based; details: rabbit joint capsule fibroblasts in collagen gels; 50 μg/mL blebbistatin; 0, 5, 24 and 48 hours; versus blank PLGA particle control
Procedure: Inhibition of Rho/ROCK pathway in RJCFs by blebbistatin nanoparticle was studied using quantitative real-time PCR (qPCR) Two groups of collagen gels were prepared in the same way as described in the collagen gel compaction assay. One group of gels (n=3) was treated with 2.5 mg of blebbistatin nanoparticles dispersed in 50 μL of DMEM so that the final concentration of blebbistatin was 50 μg/mL. The other control group gels (n=3) were also treated in the same way but instead with blank PLGA particles. Measurements were made at four terminal time points of 0, 5, 24 and 48 hours. After each time point the gels were washed twice with DMEM and stored at −80° C. for qPCR analysis.
Total cell RNA was extracted with an RNeasy Mini Kit (Qiagen, Valencia, Calif., USA), by following the manufacturer's protocol. Cells were then homogenized (QIAshredder column, Qiagen), and using an RNeasy column, total RNA was eluted out. The quantity and the quality of the isolated RNA were measured from the absorbance at A260 nm and the ratio of A260/A280 respectively. […] Steady-state mRNA levels were normalized to 18s rRNA and calculated relative to untreated controls by “the relative quantitation using comparative CT” in Multiplex Reactions (PerkinElmer).

[2] = tested on: rabbit joint capsule fibroblasts; assay: Fluorescent microsphere displacement assay with time-lapse imaging; type: cell-based
Procedure: The effect of blebbistatin on cell ability to compact gels was analyzed by monitoring the displacement of fluorescent microspheres. Cell seeded collagen gels were prepared as described above with the addition of a suspension of fluorescent 4 μm microspheres to achieve a concentration of 5 million microspheres/mL. Approximately, 500 μL of this solution were then carefully added around a 6 mm polydimethysiloxane (PDMS) post in a circular PDMS mold with a 20 mm diameter attached to a 35 mm glass bottom Petri dish. This construct was prepared with the purpose of preventing movement of the gel during imaging, after release. Gels were then incubated at 37° C. for 30 minutes to allow polymerization. Once the gels had polymerized, DMEM supplemented with 10% FBS, 1% Penicillin/Streptomyocin, and 0.1% Amphoterecin B was added. After incubation for 24 hours, the gels were treated with either blebbistatin PLGA particles or with blank PLGA particles for 24 hours. Gels were carefully detached from the surrounding PDMS mold and were rinsed twice using DMEM. […] Microsphere displacements were quantified by use of a custom algorithm using digital image correlation to track the movement of individual particles from frame to frame.

[3] = Raman spectroscopy and differential scanning calorimetry of drug-loaded particles; type: physicochemical; details: Raman shifts and DSC melting point unchanged after loading
Procedure: Confocal Raman spectroscopy was used to characterize the distribution of blebbistatin in the PLGA nanoparticles. Spectra of pure blebbistatin, pure PLGA, blank nanoparticles, and blebbistatin loaded nanoparticles were produced with the 488 nm line of an Ar+ laser (Coherent, Inova 70, 30 mW). After autoalignment of the instrument, the laser beam was focused on the samples using an inverted optical microscope equipped with a 50× objective lens. Spectra were recorded between 80 cm^−1 to 1300 cm^−1 at high resolution. Spectra were spatially resolved at each pixel by passing the backscattered image of the Ar+ laser through a pinhole of diameter 100 μm onto a cooled CCD camera.
Differential scanning calorimetry was employed to analyze the solid state and thermal properties of the nanoparticles. Approximately 2 mg of either lyophilized blank PLGA nanoparticles or drug-loaded PLGA nanoparticles were weighed and hermetically sealed into aluminum pans. An empty aluminum pan was used as a reference. Sample were heated from 25° C. to 300° C. at a rate of 10° C./min under a stream of nitrogen gas flow to produce thermograms for extracting the transition temperature (Tc) and enthalpy of transition (AH).

fibroblast morphology (time-lapse imaging) ([2]; fibroblasts in collagen gels, compared with untreated gels): more spherical fibroblasts
SMILES: Cc1ccc2c(c1)C(=O)C1(O)CCN(c3ccccc3)C1=N2 (centres unmarked) [blebbistatin, Blebbistatin]
gel area after compaction [1]: 87%±1%
RhoA, ROCK1 and ROCK2 gene expression (qPCR) (Rho/ROCK pathway): initial increase in RhoA, ROCKI, and ROCK II genes treated with blebbistatin that then decrease to comparable levels as control
fluorescent microsphere displacements (cell force generation) ([2]; cell-seeded collagen gels treated 24 hours, compared with control gels): significantly lower
stability of the drug after loading into the particles [3]: stable and no significant physical/chemical changes occurred
